Laboratory results taken from US20210401929A1 (Northeast Normal University, priority 2020, published 2021).

Test system: lung inflammation mice model
Experiment: LPS lung inflammation mice model, inflammatory factor mRNA in lung by real-time PCR
Type: in vivo
Settings: intranasal, peptide alone without LPS

N=C(N)NCCC[C@H](NC(=O)[C@H](CCCNC(=N)N)NC(=O)[C@H](CCCNC(=N)N)NC(=O)[C@H](CCC(N)=O)NC(=O)[C@H](CCCNC(=N)N)NC(=O)[C@H](CCCNC(=N)N)NC(=O)[C@H](CCCCN)NC(=O)[C@H](CCCCN)NC(=O)[C@H](CCCNC(=N)N)NC(=O)CNC(=O)[C@@H](N)Cc1ccc(O)cc1)C(=O)O [TAT]
inflammation in the lungs of mice treated with peptide alone (inflammatory factor mRNA): do not cause inflammation
